Measured values: patent US20210214375A1 (LUNDBECK LA JOLLA RESEARCH CENTER, INC., priority 2017, published 2021)
Where two headings read alike, the source gives them in different places.

Columns and labels:
MAGL [1] = biological target: T1, MAGL (Mus musculus, UniProt O35678); experiment: Mouse brain proteomes from inhibitor treated mice (oral gavage, brain proteomes analyzed 4 h after administration); assay type: in vivo, mouse (C57Bl/6J); conditions: brain proteome 4 h after administration, read-out: % Inh 5 mg/kg MGLL (Mouse)
T1 construct: from tissue; host or cells: brain of wild-type C57Bl/6J mice
T1 sequence (O35678 1-303): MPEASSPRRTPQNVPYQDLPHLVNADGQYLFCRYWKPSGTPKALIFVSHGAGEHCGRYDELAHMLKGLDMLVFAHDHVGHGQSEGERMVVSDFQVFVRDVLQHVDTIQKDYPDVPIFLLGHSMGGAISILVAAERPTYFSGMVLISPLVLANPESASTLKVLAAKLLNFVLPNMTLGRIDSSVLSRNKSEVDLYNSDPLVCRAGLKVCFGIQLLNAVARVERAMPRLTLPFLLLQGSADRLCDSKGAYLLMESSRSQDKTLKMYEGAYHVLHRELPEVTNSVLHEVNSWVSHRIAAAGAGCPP
Outline: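 Wild-type C57Bl/6J mice dosed orally in polyethylene glycol vehicle; brains removed 4 h post-dose and brain proteomes prepared and analysed for MAGL and serine hydrolase activity by previously established methods.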

MGLL = biological target: T2, MGLL (Mus musculus, UniProt O35678); experiment: In vitro competitive activity-based protein profiling, mouse brain proteome; assay type: biochemical
T2 construct: Brain; from tissue; host or cells: mouse brain proteome
T2 sequence (O35678 1-303): T1 sequence (O35678 1-303)
Protocol: [Worded in the source for another species; this species is reported under the same test.] (§1) Proteomes (human prefrontal cortex or cell membrane fractions) (50 μL, 1.0 mg/mL total protein concentration) were preincubated with varying concentrations of inhibitors at 37° C. After 30 min, FP—Rh or HT-01 (1.0 μL, 50 μM in DMSO) was added and the mixture was incubated for another 30 min at room temperature. Reactions were quenched with SDS loading buffer (15 μL-4×) and run on SDS-PAGE.

MAGL [2] = biological target: T3, MAGL (Homo sapiens, UniProt Q99685); experiment: In vitro competitive activity-based protein profiling (gel-based, FP-Rh or HT-01 probe); assay type: biochemical
T3 construct: Proteomes (human prefrontal cortex or cell membrane fractions); from tissue
T3 sequence (Q99685 1-303): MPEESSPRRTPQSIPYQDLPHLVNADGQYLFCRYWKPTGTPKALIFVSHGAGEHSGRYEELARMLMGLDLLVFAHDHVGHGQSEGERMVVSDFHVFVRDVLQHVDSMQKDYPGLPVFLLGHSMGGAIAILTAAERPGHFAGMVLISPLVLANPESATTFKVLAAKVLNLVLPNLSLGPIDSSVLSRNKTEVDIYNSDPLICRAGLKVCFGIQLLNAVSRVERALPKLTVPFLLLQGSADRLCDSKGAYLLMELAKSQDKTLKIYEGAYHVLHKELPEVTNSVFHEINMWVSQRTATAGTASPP
Outline: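 Human prefrontal cortex or cell membrane proteomes (1.0 mg/mL protein) preincubated with varying inhibitor concentrations 30 min at 37° C. FP-Rh or HT-01 probe (1.0 μL of 50 μM stock) then added for 30 min at room temperature; reactions quenched with SDS loading buffer and resolved by SDS-PAGE.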

ABHD6 = biological target: T4, ABHD6 (Mus musculus, UniProt Q8R2Y0); experiment: In vitro competitive activity-based protein profiling, mouse brain proteome, ABHD6; assay type: biochemical; conditions: mouse
T4 construct: Brain; from tissue; host or cells: mouse brain proteome
T4 sequence (Q8R2Y0 1-336): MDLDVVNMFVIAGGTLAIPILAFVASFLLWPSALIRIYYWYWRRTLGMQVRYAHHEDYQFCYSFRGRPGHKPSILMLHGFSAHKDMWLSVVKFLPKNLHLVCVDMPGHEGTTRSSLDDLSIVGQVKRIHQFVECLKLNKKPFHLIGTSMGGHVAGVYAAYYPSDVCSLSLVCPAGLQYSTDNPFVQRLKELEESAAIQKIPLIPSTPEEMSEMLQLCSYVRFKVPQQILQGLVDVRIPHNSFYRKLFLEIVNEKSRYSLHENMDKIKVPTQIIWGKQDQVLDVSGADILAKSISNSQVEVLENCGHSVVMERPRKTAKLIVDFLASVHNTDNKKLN
Protocol: [Worded in the source for another target; this target is reported under the same test.] as §1

[3] = PC3 proteome, read-out: IC50 MGLL PC3 (Human)
[4] = PFC (prefrontal cortex) proteome, read-out: IC50 MGLL PFC (Human)

Structure (SMILES) | inhibition at 5 mg/kg (MAGL [1]) [%] | IC50 (MGLL) [nM] | IC50 (MAGL [2]; [3]) [nM] | IC50 (ABHD6) [nM] | % Inh MGLL PFC (Human, μM) (MAGL [2]; PFC (prefrontal cortex) proteome) | IC50 (MAGL [2]; [4]) [nM]
O=C(O)CN1CCN(c2cc(C(F)(F)F)ccc2CN2CCCC23CCN(C(=O)OC(C(F)(F)F)C(F)(F)F)CC3)CC1 [Example 3, 2-(4-(2-((8-(((1,1,1,3,3,3-Hexafluoropropan-2-yl)oxy)carbonyl)-1,8-diazaspiro[4.5]decan-1-yl)methyl)-5-(trifluoromethyl)phenyl)piperazin-1-yl)acetic acid] | ≤ 25 | < 100 | < 100 | > 1000 | ### (### is ≥ 75%) | < 100
CC(=O)N1CC2(CCN(c3cc(C(F)(F)F)ccc3CN3CCN(C(=O)OC(C(F)(F)F)C(F)(F)F)CC3)C2)C1 [Example 180, 1,1,1,3,3,3-Hexafluoropropan-2-yl 4-(2-(2-acetyl-2,6-diazaspiro[3.4]octan-6-yl)-4-(trifluoromethyl)benzyl)piperazine-1-carboxylate] | ≥ 75 | < 100 | < 100 | > 1000 | – | –
O=C(O)C1CCN(c2cc(CN3CC4(CCN(C(=O)OC(C(F)(F)F)C(F)(F)F)CC4)C3)cc(C(F)(F)F)c2)CC1 [Example 99, 1-(3-((7-(((1,1,1,3,3,3-Hexafluoropropan-2-yl)oxy)carbonyl)-2,7-diazaspiro[3.5]nonan-2-yl)methyl)-5-(trifluoromethyl)phenyl)piperidine-4-carboxylic acid] | 25 to 75 | < 100 | < 100 | 100 to 1000 | – | < 100
CC(=O)N1CC2(CCN(c3ccccc3CN3CCN(C(=O)OC(C(F)(F)F)C(F)(F)F)CC3)C2)C1 [Example 168, 1,1,1,3,3,3-Hexafluoropropan-2-yl 4-(2-(2-acetyl-2,6-diazaspiro[3.4]oetan-6-yl)benzyl)piperazine-1-carboxylate] | ≥ 75 | < 100 | < 100 | > 1000 | – | –
CN(Cc1ccc(C(F)(F)F)cc1N1CCOC(C(=O)O)C1)C1(C)CCN(C(=O)OC(C(F)(F)F)C(F)(F)F)CC1 (centres unmarked) [Example 108, 4-(2-(((1-(((1,1,1,3,3,3-Hexafluoropropan-2-yl)oxy)carbonyl)-4-methylpiperidin-4-yl)(methyl)amino)methyl)-5-(trifluoromethyl)phenyl)morpholine-2-carboxylic acid] | ≤ 25 | < 100 | < 100 | 100 to 1000 | – | –

Results, then the molecule that gave them:

inhibition at 5 mg/kg (MAGL [1]) [%] | IC50 (MGLL) [nM] | IC50 (MAGL [2]; [3]) [nM] | IC50 (ABHD6) [nM] | % Inh MGLL PFC (Human, μM) (MAGL [2]; PFC (prefrontal cortex) proteome) | IC50 (MAGL [2]; [4]) [nM] | Structure (SMILES)
≤ 25 | < 100 | < 100 | > 1000 | – | – | CCN1CCC2(CCN(c3cc(C(F)(F)F)ccc3CN3CCN(C(=O)OC(C(F)(F)F)C(F)(F)F)CC3)CC2)C1 [Example 183, 1,1,1,3,3,3-Hexafluoropropan-2-yl 4-(2-(2-ethyl-2,8-diazaspiro[4.5]decan-8-yl)-4-(trifluoromethyl)benzyl)piperazine-1-carboxylate]
≥ 75 | < 100 | < 100 | > 1000 | – | – | CS(=O)(=O)N1CC2(CCN(c3cc(C(F)(F)F)ccc3CN3CCN(C(=O)OC(C(F)(F)F)C(F)(F)F)CC3)C2)C1 [Example 186, 1,1,1,3,3,3-Hexafluoropropan-2-yl 4-(2-(2-(methylsulfonyl)-2,6-diazaspiro[3.4]octan-6-yl)-4-(trifluoromethyl)benzyl)piperazine-1-carboxylate]
≥ 75 | < 100 | < 100 | > 1000 | – | – | CS(=O)(=O)N1CCC2(CCN(c3cc(Cl)ccc3CN3CCN(C(=O)OC(C(F)(F)F)C(F)(F)F)CC3)CC2)C1 [Example 174, 1,1,1,3,3,3-Hexafluoropropan-4-(4-chloro-2-(2-(methylsulfonyl)-2,8-diazaspiro[4.5]decan-8-yl)benzyl)piperazine-1-carboxylate]
≥ 75 | < 100 | < 100 | > 1000 | – | – | CC(=O)N1CCC2(CCN(c3cc(C(F)(F)F)ccc3CN3CCN(C(=O)OC(C(F)(F)F)C(F)(F)F)CC3)CC2)C1 [Example 189, 1,1,1,3,3,3-Hexafluoropropan-2-yl 4-(2-(2-acetyl-2,8-diazaspiro[4.5]decan-8-yl)-4-(trifluoromethyl)benzyl)piperazine-1-carboxylate]
≥ 75 | < 100 | < 100 | > 1000 | – | – | CC(=O)N1CC2(CCN(c3cc(C(F)(F)F)ccc3CN3CCN(C(=O)OC(C(F)(F)F)C(F)(F)F)CC3)CC2)C1 [Example 216, 1,1,1,3,3,3-Hexafluoropropan-2-yl 4-(2-(2-acetyl-2,7-diazaspiro[3.5]nonan-7-yl)-4-(trifluoromethyl)benzyl)piperazine-1-carboxylate]
≥ 75 | < 100 | < 100 | > 1000 | – | < 100 | O=C(OC(C(F)(F)F)C(F)(F)F)N1CCC2(CCCN2Cc2cc(C(F)(F)F)cc(C3(C(=O)O)CCCC3)c2)CC1 [Example 8, 1-(3-((8-(((1,1,1,3,3,3-Hexafluoropropan-2-yl)oxy)carbonyl)-1,8-diazaspiro[4.5]decan-1-yl)methyl)-5-(trifluoromethyl)phenyl)cyclopentane-1-carboxylic acid]
≥ 75 | < 100 | < 100 | > 1000 | – | < 100 | CS(=O)(=O)N1CCC2(CCN(c3cc(C(F)(F)F)ccc3CN3CCN(C(=O)OC(C(F)(F)F)C(F)(F)F)CC3)CC2)C1 [Example 185, 1,1,1,3,3,3-Hexafluoropropan-2-yl 4-(2-(2-(methylsulfonyl)-2,8-diazaspiro[4.5]decan-8-yl)-4-- (trifluoromethyl)benzyl)piperazine-1-carboxylate]
